Values joined by “and” are separate entries in the source; they are usually repeats but may differ in a detail not shown here. Identical values can stand only once. “Also recorded” adds a separate entry of the source.
Tests used:
[1] = test system: HIV-1 reverse transcriptase F227L (F227L-RTV); experiment: Phenotypic susceptibility assay, site directed mutant F227L-RTV; assay type: cell-based; details: >1 loss, <1 increased susceptibility
Procedure: (§1) Resistance tests were carried out with resistance test vectors using two host cell types. Resistance test vector viral particles were produced by a first host cell (the resistance test vector host cell) that was prepared by transfecting a packaging host cell with the resistance test vector and the packaging expression vector. The resistance test vector viral particles were then used to infect a second host cell (the target host cell) in which the expression of the indicator gene is measured.
(§2) The resistance test vectors containing a functional luciferase gene cassette were constructed and host cells were transfected with the resistance test vector DNA. The resistant test vectors contained patient-derived reverse transcriptase and protease sequences that were either susceptible or resistant to the antiretroviral agents, such as nucleoside reverse transcriptase inhibitors, non-nucleoside reverse transcriptase inhibitors and protease inhibitors. The resistance test vector viral particles produced by transfecting the resistance test vector DNA into host cells, either in the presence or absence of protease inhibitors, were used to infect target host cells grown either in the absence of NRTI or NNRTI or in the presence of increasing concentrations of the drug. […] The IC50 values were determined by plotting percent drug inhibition vs. log10 drug concentration.
(§3) Host cells were seeded in 10-cm-diameter dishes and were transfected several days after plating with resistance test vector plasmid DNA and the envelope expression vector. […] HIV capsid protein (p24) levels in the harvested cell culture media were determined by an EIA method as described by the manufacturer (SIAC; Frederick, Md.). […] The inhibitory effect of the drug was determined using the following equation: % luciferase inhibition=1-(RLUluc[drug]÷RLUluc)×100 where RLUluc [drug] is the relative light unit of luciferase activity in infected cells in the presence of drug and RLUluc is the Relative Light Unit of luciferase activity in infected cells in the absence of drug. […]

[2] = test system: HIV-1 reverse transcriptase K103N + G190A (K103N-G190A-RTV); experiment: Phenotypic susceptibility assay, site directed mutant K103N-G190A-RTV; assay type: cell-based; details: K103N-G190-RTV (K103N + G190A); >1 loss of susceptibility
Procedure: as §1, §2, §3

[3] = test system: HIV-1 reverse transcriptase E138A + Y188L (E138A-Y188L-RTV); experiment: Phenotypic susceptibility assay, site directed mutant E138A-Y188L-RTV; assay type: cell-based; details: >1 loss of susceptibility
Procedure: as §1, §2, §3

[4] = test system: HIV-1 reverse transcriptase V108I (V108I-RTV); experiment: Phenotypic susceptibility assay, site directed mutant V108I-RTV; assay type: cell-based; details: >1 loss of susceptibility
Procedure: as §1, §2, §3

[5] = test system: HIV-1 reverse transcriptase V106A + F227L (V106A-F227-RTV); experiment: Phenotypic susceptibility assay, site directed mutant V106A-F227-RTV; assay type: cell-based; details: >1 loss of susceptibility
Procedure: as §1, §2, §3

[6] = test system: HIV-1 reverse transcriptase G190A (G190A-RTV); experiment: Phenotypic susceptibility assay, site directed mutant G190A-RTV; assay type: cell-based; details: for change in susceptibility: G190A-RTV versus wild type reference RTV
Procedure: as §1
(§4) The resistance test vectors containing a functional luciferase gene cassette were constructed and host cells were transfected with the resistance test vector DNA. The resistant test vectors contained patient-derived reverse transcriptase and protease sequences that were either susceptible or resistant to the antiretroviral agents, such as nucleoside reverse transcriptase inhibitors, non-nucleoside reverse transcriptase inhibitors and protease inhibitors. The resistance test vector viral particles produced by transfecting the resistance test vector DNA into host cells, either in the presence or absence of protease inhibitors, were used to infect target host cells grown either in the absence of NRTI or NNRTI or in the presence of increasing concentrations of the drug. The amount of luciferase activity produced in infected target host cells in the presence of drug was compared to the amount of luciferase produced in infected target host cells in the absence of drug. Drug resistance was measured as the amount of drug required to inhibit by 50% the luciferase activity detected in the absence of drug (inhibitory concentration 50%, IC50). The IC50 values were determined by plotting percent drug inhibition vs. log10 drug concentration.
as §3, with “vector. Transfections were performed using a calcium-phosphate precipitation procedure. The cell culture media containing the DNA precipitate was replaced with fresh medium, from one to 24 hours, after transfection.” for “vector.”

[7] = test system: HIV-1 reverse transcriptase V106A + Y181C (V106A-Y181C-RTV); experiment: Phenotypic susceptibility assay, site directed mutant V106A-Y181C-RTV; assay type: cell-based; details: >1 loss of susceptibility
Procedure: as §1, §2, §3

[8] = test system: HIV-1 reverse transcriptase Y181C + A98G (Y181C-A98G-RTV); experiment: Phenotypic susceptibility assay, site directed mutant Y181C-A98G-RTV; assay type: cell-based; details: >1 loss of susceptibility
Procedure: as §1, §2, §3

[9] = test system: HIV-1 reverse transcriptase V106A (V106A-RTV); experiment: Phenotypic susceptibility assay, site directed mutant V106A-RTV; assay type: cell-based; details: >1 loss of susceptibility
Procedure: as §1, §2, §3

[10] = test system: HIV-1 reverse transcriptase Y181C (Y181C-RTV); experiment: Phenotypic susceptibility assay, site directed mutant Y181C-RTV; assay type: cell-based; details: for resistance profile: Y181C site directed mutant, FIG. 5
Procedure: as §1, §2, §3

[11] = test system: HIV-1 reverse transcriptase Y188C (Y188C-RTV); experiment: Phenotypic susceptibility assay, site directed mutant Y188C-RTV; assay type: cell-based; details: >1 loss of susceptibility
Procedure: as §1, §2, §3

[12] = test system: HIV-1 reverse transcriptase P236L (P236L-RTV); experiment: Phenotypic susceptibility assay, site directed mutant P236L-RTV; assay type: cell-based; details: P236L alone versus wild type reference RTV
Procedure: Transfections were performed using a calcium-phosphate precipitation procedure. […] Cell lysates were assayed for luciferase activity (FIG. 3). […] The drug inhibition curves are shown in (FIG. 3).
Resistance test vectors were constructed containing the P236L mutation alone and in combination with other known drug resistance mutations (K103N, Y181C) that are known to modulate the susceptibility of HIV-1 to NNRTIs. […] The P236L mutation was also introduced into a RTV containing mutations at K103N, Y181C or both (K103N+Y181C).

[13] = test system: RTV-1060 patient virus (RT K101E, G190S); experiment: Phenotypic susceptibility assay, RTV-1060 (patient 98-1060); assay type: cell-based, HIV-1; details: >1 decreased susceptibility
Procedure: as §1
The resistance test vectors containing a functional luciferase gene cassette were constructed and host cells were transfected with the resistance test vector DNA. The resistant test vectors contained patient-derived reverse transcriptase and protease sequences that were either susceptible or resistant to the antiretroviral agents, such as nucleoside reverse transcriptase inhibitors, non-nucleoside reverse transcriptase inhibitors and protease inhibitors. […] The IC50 values were determined by plotting percent drug inhibition vs. log10 drug concentration.
as §3
An IC50 was determined for the resistance test vector pool for each drug tested.

[14] = test system: HIV-1 reverse transcriptase V189L (V189L-RTV); experiment: Phenotypic susceptibility assay, site directed mutant V189L-RTV; assay type: cell-based; details: >1 loss of susceptibility
Procedure: as §1, §2, §3

[15] = test system: HIV-1 reverse transcriptase A98G (A98G-RTV); experiment: Phenotypic susceptibility assay, site directed mutant A98G-RTV; assay type: cell-based; details: >1 loss of susceptibility
Procedure: as §1, §2, §3

[16] = test system: HIV-1 reverse transcriptase V106A + Y181C + F227L (V106A-Y181C-F227L-RTV); experiment: Phenotypic susceptibility assay, site directed mutant V106A-Y181C-F227L-RTV; assay type: cell-based; details: >1 loss of susceptibility
Procedure: as §1, §2, §3

[17] = test system: HIV-1 reverse transcriptase K103N (K103N-RTV); experiment: Phenotypic susceptibility assay, site directed mutant K103N-RTV; assay type: cell-based; details: for change in susceptibility / resistance: K103N mutation; for fold change in susceptibility compared to wild type control RTV: K103N-RTV, >1 loss of susceptibility
Procedure: as §1, §4
Host cells were seeded in 10-cm-diameter dishes and were transfected several days after plating with resistance test vector plasmid DNA and the envelope expression vector. Transfections were performed using a calcium-phosphate precipitation procedure. The cell culture media containing the DNA precipitate was replaced with fresh medium, from one to 24 hours, after transfection. Cell culture media containing resistance test vector viral particles was harvested one to four days after transfection and was passed through a […] filter before being stored at −80° C. HIV capsid protein (p24) levels in the harvested cell culture media were determined by an EIA method as described by the manufacturer (SIAC; Frederick, Md.). Before infection, target cells (293 and 293/T) were plated in cell culture media. Control infections were performed using cell culture media from mock transfections (no DNA) or transfections containing the resistance test vector plasmid DNA without the envelope expression plasmid. One to three or more days after infection the media was removed and cell lysis buffer (Promega) was added to each well. […] The inhibitory effect of the drug was determined using the following equation: % luciferase inhibition=1-(RLUluc[drug]÷RLUluc)×100 where RLUluc [drug] is the relative light unit of luciferase activity in infected cells in the presence of drug and RLUluc is the Relative Light Unit of luciferase activity in infected cells in the absence of drug. IC50 values were obtained from the sigmoidal curves that were generated from the data by plotting the percent inhibition of luciferase activity vs. the log10 drug concentration. […]

SMILES	fold change in susceptibility compared to wild type control RTV [1] [fold]	fold change in susceptibility compared to wild type control RTV [2]	fold change in susceptibility compared to wild type control RTV [3]	fold change in susceptibility compared to wild type control RTV [4] [fold]	fold change in susceptibility compared to wild type control RTV [5]	change in susceptibility [6]	fold change in susceptibility compared to wild type control RTV [7]	fold change in susceptibility compared to wild type control RTV [8]	fold change in susceptibility compared to wild type control RTV [9] [fold]	resistance profile [10]	fold change in susceptibility compared to wild type control RTV [11] [fold]	change in susceptibility [12]	fold change in susceptibility [13]	fold change in susceptibility compared to wild type control RTV [14] [fold]	fold change in susceptibility compared to wild type control RTV [15] [fold]	fold change in susceptibility compared to wild type control RTV [16]	change in susceptibility / resistance [17]	fold change in susceptibility compared to wild type control RTV [17] [fold]	further results
Cc1ccnc2c1NC(=O)c1cccnc1N2C1CC1 [nevirapine]	3	greater than 800 fold	greater than 800 fold	3	greater than 800 fold	markedly less susceptible; also recorded: decrease; also recorded: greatly reduce susceptibility	greater than 800 fold	greater than 800 fold	60	resistance	30	no significant change; also recorded: little or no reduction	greater than 800 fold	1.3	8	greater than 800 fold	reduced susceptibility; also recorded: resistance	55	–
CC(C)Nc1cccnc1N1CCN(C(=O)c2cc3cc(NS(C)(=O)=O)ccc3[nH]2)CC1 [delavirdine]	0.03	40 fold	75 fold	1.3	3 fold	slightly more susceptible; also recorded: increase; also recorded: slightly increase susceptibility	100 fold	240 fold	5	resistance	3	less susceptible; also recorded: significant reduction	1.5 fold	1.8	3	50 fold	reduced susceptibility; also recorded: resistance	50	change in susceptibility ([6]; listed as delviridine): increased susceptibility
O=C1Nc2ccc(Cl)cc2[C@@](C#CC2CC2)(C(F)(F)F)O1 [efavirenz]	0.48	215 fold	88 fold	1.7	8 fold	–	4 fold	7 fold	1.7	–	20	no effect	900 fold	1.3	3	12 fold	–	30	fold change in susceptibility compared to wild type control RTV ([6]; G190A-RTV): 8 fold; fold change in susceptibility compared to wild type control RTV ([10]; Y181C-RTV, >1 loss of susceptibility): 3 fold and 4 fold

Source: US20050130134A1, “Means and methods for monitoring non-nucleoside reverse transcriptase inhibitor antiretroviral therapy and guiding therapeutic decisions in the treatment HIV-AIDS” (ViroLogic, Inc., priority 2000, published 2005)
